Experimental data from patent US20240351985A1, “NOVEL COMPOUND AND USE OF SAID COMPOUND” (APHEA.BIO NV, priority 2021, published 2024).
In brackets after ≈: the same amount, converted by molar mass. Several values for one entry are separate records, joined by “and”; a condition that tells them apart may be missing. Equal values may be shown once. Read-outs that look alike come from different tables or passages of the source.

Experiments:
[1] = test system: F. graminearum spores; type: cell-based, Fusarium graminearum; conditions: for Halo Diameter / Opacity Grade: 24 hours
[2] = test system: Fusarium graminearum; experiment: microbe, parasite or virus in culture; type: cell-based; conditions: 22 h
[3] = test system: Zymoseptoria tritici; experiment: microbe, parasite or virus in culture; type: cell-based; conditions: 120 h, incubation 5 d
[4] = test system: Puccinia striiformis; experiment: Dose-response liquid-based assay against spores of Puccinia striiformis; type: cell-based; conditions: 48 h
[5] = test system: Fusarium graminearum, Puccinia striiformis and Zymoseptoria tritici; experiment: organism not typed; type: cell-based
[6] = read-out: Absorbance (600 nm): AC50 value, Estimation
[7] = read-out: Absorbance (600 nm): AC50 value, Range
[8] = read-out: Fluorescence of resazurin dye (excitation 570 nm, emission 615 nm): AC50 value, Estimation
[9] = read-out: Fluorescence of resazurin dye (excitation 570 nm, emission 615 nm): AC50 value, Range

Which “Halo Diameter” value ([1]; 10 μL pipetted, 0.125 mg/mL) does the source give for `C[C@@H]1[C@H](O)[C@@H](C)/C=C/C=C/C=C/C=C/C=C/C=C/C=C/[C@H](O[C@@H]2O[C@H](C)[C@@H](O)[C@H](N)[C@@H]2O)C[C@@H]2O[C@](O)(C[C@@H](O)C[C@@H](O)[C@H](O)CC[C@@H](O)C[C@@H](O)CC(=O)O[C@H]1C)C[C@H](O)[C@H]2C(=O)O` [Amphotericin B, reference compound] here?
Its value is 9.3 mm.

And the “Opacity Grade” value ([1]; 10 μL pipetted, 0.125 mg/mL)?
Its value is “B (‘B’ means 60-80% inhibition of the pathogen)”.

What about the “Halo Diameter” value ([1]; 10 μL pipetted, 0.15625 mg/mL) of the same molecule?
The value was 7.1 mm.

And the “Opacity Grade” value ([1]; 10 μL pipetted, 0.15625 mg/mL)?
Its value is “C (‘C’ means 40-60% inhibition of the pathogen)”.

And the “Halo Diameter” value ([1]; 10 μL pipetted, 0.250 mg/mL)?
The value was 9.2 mm and 9 mm and 9.3 mm and 8.7 mm.

What about the “Opacity Grade” value ([1]; 10 μL pipetted, 0.250 mg/mL) of the same molecule?
Its value is “A (‘A’ means 80-100% inhibition of the pathogen)”.

And the “Halo Diameter” value ([1]; 10 μL pipetted, 0.3125 mg/mL)?
Its value is 7.7 mm.

What about the “Opacity Grade” value ([1]; 10 μL pipetted, 0.3125 mg/mL) of the same molecule?
The value was “C (‘C’ means 40-60% inhibition of the pathogen)”.

What about the “Halo Diameter” value ([1]; 10 μL pipetted, 0.625 mg/mL) of the same molecule?
Its value is 9.1 mm.

And the “Opacity Grade” value ([1]; 10 μL pipetted, 0.625 mg/mL)?
The value was “B (‘B’ means 60-80% inhibition of the pathogen)”.

Which results are given for `C=C/C(C)=C/[C@@H](C)C(=O)CC(CC(CC(N)=O)CC(=O)O)SC` (stereo partly shown) [C17H27NO4S]?
Halo Diameter ([1]; 2 μL pipetted, 0.125 mg/mL): 4.4 mm and 4.7 mm and 4.3 mm; Opacity Grade ([1]; 2 μL pipetted, 0.125 mg/mL): E (‘E’ means 0-20% inhibition of the pathogen); Halo Diameter ([1]; 2 μL pipetted, 0.250 mg/mL): 5.5 mm and 5.6 mm; Opacity Grade ([1]; 2 μL pipetted, 0.250 mg/mL): D (‘D’ means 20-40% inhibition of the pathogen); Halo Diameter ([1]; 2 μL pipetted, 0.500 mg/mL): 6.7 mm and 7.2 mm and 7.1 mm; Opacity Grade ([1]; 2 μL pipetted, 0.500 mg/mL): B (‘B’ means 60-80% inhibition of the pathogen); Halo Diameter ([1]; 2 μL pipetted, 1 mg/mL): 8.3 mm and 8.2 mm; Opacity Grade ([1]; 2 μL pipetted, 1 mg/mL): A (‘A’ means 80-100% inhibition of the pathogen); Halo Diameter ([1]; 2 μL pipetted, 2 mg/mL): 9.1 mm and 9.3 mm; Opacity Grade ([1]; 2 μL pipetted, 2 mg/mL): A (‘A’ means 80-100% inhibition of the pathogen); Halo Diameter ([1]; 2 μL pipetted, 4 mg/mL): 9.5 mm and 9.2 mm and 9.6 mm; Opacity Grade ([1]; 2 μL pipetted, 4 mg/mL): A (‘A’ means 80-100% inhibition of the pathogen); Halo Diameter ([1]; 2 μL pipetted, 8 mg/mL): 9.8 mm and 9.2 mm and 9.7 mm; Opacity Grade ([1]; 2 μL pipetted, 8 mg/mL): A (‘A’ means 80-100% inhibition of the pathogen); Activity against F. graminearum spores ([1]; all concentrations tested (8 mg/mL to 125 μg/mL)): active; AC50 [2, 6]: 8.9 µg/mL (≈ 26.1 µM); AC50 [2, 7]: 7.54 to 10.5 µg/mL (≈ 22.1 to 30.7 µM); AC50 [2, 8]: 13.2 µg/mL (≈ 38.8 µM); AC50 [2, 9]: 11.8 to 14.8 µg/mL (≈ 34.6 to 43.5 µM); AC50 [3, 6]: 16 µg/mL (≈ 46.9 µM); AC50 [3, 7]: 14.9 to 17.2 µg/mL (≈ 43.7 to 50.4 µM); AC50 [3, 8]: 15.9 µg/mL (≈ 46.6 µM); AC50 [3, 9]: 14.8 to 17.1 µg/mL (≈ 43.3 to 50 µM); AC50 [4, 8]: 12.8 µg/mL (≈ 37.5 µM); AC50 [4, 9]: 11.7 to 14 µg/mL (≈ 34.1 to 41.1 µM); AC50 ([5]; read-out: Active concentrations (AC50 ranges) for hyphal growth in the wells): 7.54 to 17.2 µg/mL (≈ 22.1 to 50.4 µM); AC50 ([5]; read-out: Active concentrations (AC50 ranges) for metabolic activity): 11.7 to 17.1 µg/mL (≈ 34.1 to 50 µM)
